From patent US9216965B2, “Amino-quinolines as kinase inhibitors” (GlaxoSmithKline Intellectual Property Development Limited, priority 2012, dated 2015)
Counter-ions that a name gives are not always drawn.

These molecules were tested against T1, RIPK2 (Homo sapiens, UniProt O43353) (assay: Fluorescent polarization based binding assay at the ATP binding pocket of RIPK2). Conditions: full length FLAG His tagged RIPK2; competition with fluorescently labeled ATP competitive ligand (5 nM); mean of a minimum of 2 experiments.
T1 construct: Full length FLAG His tagged RIPK2 was purified from a Baculovirus expression system; FLAG (N); 6His (N); made in house; host or cells: Spodoptera frugiperda (Sf9) insect cells, baculovirus
T1 sequence (O43353 whole entry): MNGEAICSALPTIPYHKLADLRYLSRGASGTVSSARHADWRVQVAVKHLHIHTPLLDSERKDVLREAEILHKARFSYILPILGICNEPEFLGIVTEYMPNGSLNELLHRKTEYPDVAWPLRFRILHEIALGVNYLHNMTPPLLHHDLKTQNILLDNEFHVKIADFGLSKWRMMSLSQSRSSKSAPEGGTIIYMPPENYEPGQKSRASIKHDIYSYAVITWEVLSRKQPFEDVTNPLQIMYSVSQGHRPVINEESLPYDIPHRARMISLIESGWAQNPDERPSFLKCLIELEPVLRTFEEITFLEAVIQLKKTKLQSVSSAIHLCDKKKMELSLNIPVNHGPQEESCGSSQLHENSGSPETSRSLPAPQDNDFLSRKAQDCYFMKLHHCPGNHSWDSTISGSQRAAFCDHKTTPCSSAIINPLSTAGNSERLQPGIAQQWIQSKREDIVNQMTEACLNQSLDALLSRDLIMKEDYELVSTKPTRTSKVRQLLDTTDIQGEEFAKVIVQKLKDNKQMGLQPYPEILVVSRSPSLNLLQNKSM
Experimental: A fluorescent polarization based binding assay was developed to quantitate interaction of novel test compounds at the ATP binding pocket of RIPK2, by competition with a fluorescently labeled ATP competitive ligand. Full length FLAG His tagged RIPK2 was purified from a Baculovirus expression system and was used at a final assay concentration of twice the KDapparent. […] Both the enzyme and ligand were prepared in solutions in 50 mM HEPES pH7.5, 150 mM NaCl, 10 mM MgCl2, 1 mM DTT, and 1 mM CHAPS. Test compounds were prepared in 100% DMSO and 100 nL was dispensed to individual wells of a multiwell plate. Next, 5 ul RIPK2 was added to the test compounds at twice the final assay concentration, and incubated at rt for 10 min. Following the incubation, 5 ul of the fluorescent labeled ligand solution, was added to each reaction, at twice the final assay concentration, and incubated at rt for at least 10 min. Finally, samples were read on an instrument capable of measuring fluorescent polarization. Test compound inhibition was expressed as percent (%) inhibition of internal assay controls.
For concentration/dose response experiments, normalized data were fit and pIC50s determined using conventional techniques.
Gateway® LR cloning was used to site-specifically recombine RIPK2 downstream to an N-terminal FLAG-6His contained within the destination vector pDEST8-FLAG-His6 according to the protocol described by Invitrogen. Transfection into Spodoptera frugiperda (Sf9) insect cells was performed using Cellfectin® (Invitrogen), according to the manufacturer's protocol.

SMILES	IC50 [nM]
Cc1n[nH]c(Nc2ccnc3cc(OC[C@H](C)O)c(S(=O)(=O)C(C)(C)C)cc23)c1C [2(S), (S)-1-((6-(tert-butylsulfonyl)-4-((3,4-dimethyl-1H-pyrazol-5-yl)amino)quinolin-7-yl)oxy)propan-2-ol, hydrochloride]	3.16
Cc1n[nH]c(Nc2ccnc3cc(F)c(S(=O)(=O)C(C)(C)C)cc23)c1C [Example 10, 6-(tert-Butylsulfonyl)-N-(3,4-dimethyl-1H-pyrazol-5-yl)-7-fluoroquinolin-4-amine]	15.8
Cc1n[nH]c(Nc2ccnc3cc(OCC(F)F)c(S(=O)(=O)C(C)(C)C)cc23)c1C [Example 5, 6-(tert-Butylsulfonyl)-7-(2,2-difluoroethoxy)-N-(3,4-dimethyl-1H-pyrazol-5-yl)quinolin-4-amine]	5.01
Cc1n[nH]c(Nc2ccnc3cc(OCC(C)O)c(S(=O)(=O)C(C)(C)C)cc23)c1C (racemic) [Example 1, 1-((6-(tert-Butylsulfonyl)-4-((3,4-dimethyl-1H-pyrazol-5-yl)amino)quinolin-7-yl)oxy)propan-2-ol]	3.98
Cc1n[nH]c(Nc2ccnc3cc(OCC(C)(C)O)c(S(=O)(=O)C(C)(C)C)cc23)c1C [Example 4, 1-((6-(tert-Butylsulfonyl)-4-((3,4-dimethyl-1H-pyrazol-5-yl)amino)quinolin-7-yl)oxy)-2-methylpropan-2-ol]	6.31
Cc1[nH]nc(Nc2ccnc3cc(OCC(F)(F)F)c(S(=O)(=O)C(C)(C)C)cc23)c1C [Example 7, 6-(tert-butylsulfonyl)-N-(4,5-dimethyl-1H-pyrazol-3-yl)-7-(2,2,2-trifluoroethoxy) quinolin-4-amine]	5.01
COCCCOc1cc2nccc(Nc3[nH]nc(C)c3C)c2cc1S(=O)(=O)C(C)(C)C [Example 6, 6-(tert-Butylsulfonyl)-N-(3,4-dimethyl-1H-pyrazol-5-yl)-7-(3-methoxypropoxy)quinolin-4-amine]	3.98
Cc1n[nH]c(Nc2ccnc3cc(OC[C@@H](C)O)c(S(=O)(=O)C(C)(C)C)cc23)c1C [2(R), (R)-1-((6-(tert-Butylsulfonyl)-4-((3,4-dimethyl-1H-pyrazol-5-yl)amino)quinolin-7-yl)oxy)propan-2-ol, hydrochloride]	3.16
